What was measured:
Type in all cases: cell-based, human
Details in all cases: 0.5 μM decitabine, mean ± SD of viable cells, 3 experiments
XG-5 = test: Cell viability of HMCLs by trypan blue exclusion (XG-5)
XG-6 = test: Cell viability of HMCLs by trypan blue exclusion (XG-6)
XG-7 = test: Cell viability of HMCLs by trypan blue exclusion (XG-7)
XG-20 = test: Cell viability of HMCLs by trypan blue exclusion (XG-20)
LP1 = test: Cell viability of HMCLs by trypan blue exclusion (LP1)

For `Nc1ncn([C@H]2C[C@H](O)[C@@H](CO)O2)c(=O)n1` [5-aza, 5-aza-2′-deoxycytidine], the “Cell viability (%) Day 3 5-aza” value (XG-5) was 65 ± 5%, the “Cell viability (%) Day 3 5-aza” value (XG-6) was 90 ± 1% and the “Cell viability (%) Day 3 5-aza” value (XG-7) was 90 ± 2%. The “Cell viability (%) Day 3 5-aza” value (XG-20) was 91 ± 3% and the “Cell viability (%) Day 3 5-aza” value (LP1) was 91 ± 2%.
